Experimental data as given in the NIST ThermoML archive (doi:10.1021/je020042y).

Assay: molar heat capacity at saturation pressure
Settings: Liquid

ClCCCCl [1,3-dichloropropane]
Settings | molar heat capacity [J/K/mol]
284.16 K | 154.94
286.66 K | 155.4
289.15 K | 155.76
291.66 K | 156.11
294.15 K | 156.39
296.65 K | 156.76
298.15 K | 157.03
299.16 K | 157.2
301.65 K | 157.65
304.16 K | 157.89
308.56 K | 158.63
309.15 K | 158.67
311.66 K | 159.23
314.15 K | 159.54
316.65 K | 159.89
319.16 K | 160.47
321.65 K | 160.93
324.16 K | 161.01
326.65 K | 161.59
329.15 K | 162.11
331.66 K | 162.48
334.15 K | 162.96
336.66 K | 163.33
339.16 K | 163.82
341.65 K | 164.1
344.16 K | 164.44
346.65 K | 165.1
349.15 K | 165.38
351.66 K | 165.81
353.14 K | 166.22

ClCCCl [1,2-dichloroethane]
Settings | molar heat capacity [J/K/mol]
284.16 K | 128.02
286.66 K | 128.21
289.15 K | 128.39
291.66 K | 128.58
294.15 K | 128.75
296.65 K | 128.94
298.15 K | 129.06
299.16 K | 129.11
301.65 K | 129.39
304.16 K | 129.47
308.56 K | 129.86
309.15 K | 129.86
311.66 K | 130.16
314.15 K | 130.4
316.65 K | 130.55
319.16 K | 130.88
321.65 K | 131.09
324.16 K | 131.2
326.65 K | 131.56
329.15 K | 131.87
331.66 K | 132.06
334.15 K | 132.24
336.66 K | 132.59
339.16 K | 132.82
341.65 K | 132.96
344.16 K | 133.32
346.65 K | 133.59
349.15 K | 133.83
351.66 K | 134.22
353.14 K | 134.46

ClCCCCCCl [1,5-dichloropentane]
Settings | molar heat capacity [J/K/mol]
284.16 K | 209.5
286.66 K | 210.04
289.15 K | 210.65
291.66 K | 211.2
294.15 K | 211.7
296.65 K | 212.19
298.15 K | 212.63
299.16 K | 212.96
301.65 K | 213.55
304.16 K | 214.12
308.56 K | 215.36
309.15 K | 215.26
311.66 K | 215.96
314.15 K | 216.61
316.65 K | 217.17
319.16 K | 217.92
321.65 K | 218.56
324.16 K | 219
326.65 K | 219.91
329.15 K | 220.61
331.66 K | 221.16
334.15 K | 221.76
336.66 K | 222.43
339.16 K | 223.1
341.65 K | 223.58
344.16 K | 224.7
346.65 K | 225.01
349.15 K | 225.75
351.66 K | 226.41
353.14 K | 227.13

O [water]
Settings | molar heat capacity [J/K/mol]
283.15 K | 75.47
293.15 K | 75.29
303.15 K | 75.29
313.15 K | 75.34
323.15 K | 75.32
333.15 K | 75.33
343.15 K | 75.38

ClCCCCCl [1,4-dichlorobutane]
Settings | molar heat capacity [J/K/mol]
284.16 K | 181.25
286.66 K | 181.71
289.15 K | 182.15
291.66 K | 182.62
294.15 K | 182.99
296.65 K | 183.49
298.15 K | 183.76
299.16 K | 183.89
301.65 K | 184.47
304.16 K | 184.8
308.56 K | 185.71
309.15 K | 185.83
311.66 K | 186.41
314.15 K | 186.88
316.65 K | 187.38
319.16 K | 187.89
321.65 K | 188.52
324.16 K | 188.85
326.65 K | 189.48
329.15 K | 190.01
331.66 K | 190.54
334.15 K | 190.99
336.66 K | 191.48
339.16 K | 192
341.65 K | 192.36
344.16 K | 193.05
346.65 K | 193.63
349.15 K | 194
351.66 K | 194.7
353.14 K | 195.12

ClCCCCCCCl [1,6-dichlorohexane]
Settings | molar heat capacity [J/K/mol]
284.16 K | 236.57
286.66 K | 237.13
289.15 K | 237.89
291.66 K | 238.51
294.15 K | 239.26
296.65 K | 239.89
298.15 K | 240.39
299.16 K | 240.68
301.65 K | 241.35
304.16 K | 242
308.56 K | 243
309.15 K | 243.48
311.66 K | 244.27
314.15 K | 245.06
316.65 K | 245.79
319.16 K | 246.57
321.65 K | 247.24
324.16 K | 247.78
326.65 K | 248.95
329.15 K | 249.58
331.66 K | 250.36
334.15 K | 251.24
336.66 K | 252
339.16 K | 252.72
341.65 K | 253.7
344.16 K | 254.49
346.65 K | 255.12
349.15 K | 255.75
351.66 K | 257
353.14 K | 257.47

CCCCO [butan-1-ol]
Settings | molar heat capacity [J/K/mol]
303.15 K | 181.16
313.15 K | 188.39
323.15 K | 196.66
333.15 K | 205.33
343.15 K | 214.22

Cc1ccccc1 [toluene]
Settings | molar heat capacity [J/K/mol]
283.15 K | 152.85
293.15 K | 155.56
303.15 K | 158.38
313.15 K | 161.47
323.15 K | 164.51
333.15 K | 167.63
343.15 K | 170.85
